Measured values reported in US6124305A, “Use of N-(substituted glycyl)-2-cyanopyrrolidines in inhibiting dipeptidyl peptidase-IV” (Novartis AG, priority 1999, dated 2000).
Counter-ions that a name gives are not always drawn.

Columns and labels:
DPP-IV = target: T1, DPP-IV (Homo sapiens, UniProt P27487); assay: Caco-2 DPP-IV Assay (inhibition of DPP-IV activity from human colonic carcinoma cell extracts); type: biochemical; details: human Caco-2 cell extract, H-Alanine-Proline-pNA substrate, pH 7.4, room temperature, 10 minutes
T1 construct: Cell extract is prepared from cells solubilized in 10 mM Tris-HCl; host or cells: Caco-2

human plasma DPP-IV = target: T2, human plasma DPP-IV (Homo sapiens, UniProt P27487); assay: human plasma DPP-IV inhibition assay; type: biochemical; details: H-Glycine-Proline-AMC substrate, pH 7.8, room temperature, 20 min
T2 construct: DPP-IV activity in human and rat plasma; from tissue; host or cells: human plasma

rat plasma DPP-IV = target: T3, rat plasma DPP-IV (Rattus norvegicus, UniProt P14740); assay: rat plasma DPP-IV inhibition assay; type: biochemical; details: H-Glycine-Proline-AMC substrate, pH 7.8, room temperature, 20 min
T3 construct: DPP-IV activity in human and rat plasma; from tissue; host or cells: rat plasma
Description: Briefly, five μl of plasma are added to 96-well flat-bottom microtiter plates (Falcon), followed by the addition of 5 μl of 80 mM MgCl2 in incubation buffer (25 mM HEPES, 140 mM NaCl, 1% RIA-grade BSA, pH 7.8). After a 5 min. incubation at room temperature, the reaction is initiated by the addition of 10 μl of incubation buffer containing 0.1 mM substrate (H-Glycine-Proline-AMC; AMC is 7-amino-4-methylcoumarin). The plates are covered with aluminum foil (or kept in the dark) and incubated at room temperature for 20 min. […] A fluorescence-concentration curve of free AMC is generated using 0-50 μM solutions of AMC in assay buffer. The curve generated is linear and is used for interpolation of substrate consumption (catalytic activity in nmoles substrate cleaved/min). As with the previous assay, the potency of the test compounds as DPP-IV inhibitors, expressed as IC50, is calculated from 8-point, dose-response curves using a 4 parameter logistic function.

insulin resistant rats = assay: early insulin response to an oral glucose challenge in insulin resistant rats; type: in vivo, Male Sprague-Dawley rats; details: 10 μmol/kg orally in CMC, high fat diet rats, oral glucose 1 g/kg 30 minutes after compound; % increase of the mean of the control animals

T2 sequence (P27487 39-766 limits assumed): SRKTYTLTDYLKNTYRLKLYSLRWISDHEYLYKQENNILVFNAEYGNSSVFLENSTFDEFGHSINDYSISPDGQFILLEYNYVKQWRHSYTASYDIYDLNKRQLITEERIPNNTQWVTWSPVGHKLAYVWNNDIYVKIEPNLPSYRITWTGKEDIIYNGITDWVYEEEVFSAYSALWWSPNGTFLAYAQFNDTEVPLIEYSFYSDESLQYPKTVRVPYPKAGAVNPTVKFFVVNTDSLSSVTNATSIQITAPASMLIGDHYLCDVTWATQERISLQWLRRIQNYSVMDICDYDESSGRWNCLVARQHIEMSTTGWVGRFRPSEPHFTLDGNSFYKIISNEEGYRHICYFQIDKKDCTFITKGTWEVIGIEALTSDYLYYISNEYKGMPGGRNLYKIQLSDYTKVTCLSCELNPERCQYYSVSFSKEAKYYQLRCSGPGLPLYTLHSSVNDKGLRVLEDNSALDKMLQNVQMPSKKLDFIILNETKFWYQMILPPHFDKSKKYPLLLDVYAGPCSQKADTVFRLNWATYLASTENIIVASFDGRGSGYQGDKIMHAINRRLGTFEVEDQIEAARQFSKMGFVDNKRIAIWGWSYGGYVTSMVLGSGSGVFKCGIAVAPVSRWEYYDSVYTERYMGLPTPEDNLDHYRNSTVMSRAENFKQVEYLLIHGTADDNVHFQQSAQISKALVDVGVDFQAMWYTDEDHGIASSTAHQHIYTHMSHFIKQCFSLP
T3 sequence (P14740 37-767 limits assumed): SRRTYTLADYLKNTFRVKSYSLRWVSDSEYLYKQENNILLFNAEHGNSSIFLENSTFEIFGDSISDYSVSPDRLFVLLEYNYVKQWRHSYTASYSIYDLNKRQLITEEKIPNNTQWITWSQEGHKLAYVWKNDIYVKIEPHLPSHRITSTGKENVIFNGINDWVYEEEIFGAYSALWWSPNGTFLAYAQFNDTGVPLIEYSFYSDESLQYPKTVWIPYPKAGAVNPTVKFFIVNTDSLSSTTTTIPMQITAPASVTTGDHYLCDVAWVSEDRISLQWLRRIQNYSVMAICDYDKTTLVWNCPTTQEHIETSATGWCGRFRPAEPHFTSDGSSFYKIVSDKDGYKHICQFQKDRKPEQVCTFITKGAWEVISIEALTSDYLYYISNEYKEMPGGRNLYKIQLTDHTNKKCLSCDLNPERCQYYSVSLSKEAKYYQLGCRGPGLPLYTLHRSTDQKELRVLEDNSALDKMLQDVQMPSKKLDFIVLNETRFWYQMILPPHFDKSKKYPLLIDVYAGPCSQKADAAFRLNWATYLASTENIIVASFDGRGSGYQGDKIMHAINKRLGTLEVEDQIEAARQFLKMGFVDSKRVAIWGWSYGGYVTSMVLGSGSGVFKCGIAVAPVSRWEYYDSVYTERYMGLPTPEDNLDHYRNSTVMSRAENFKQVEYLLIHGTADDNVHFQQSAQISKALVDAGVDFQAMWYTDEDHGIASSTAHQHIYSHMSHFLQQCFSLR
T1 sequence (P27487 whole entry): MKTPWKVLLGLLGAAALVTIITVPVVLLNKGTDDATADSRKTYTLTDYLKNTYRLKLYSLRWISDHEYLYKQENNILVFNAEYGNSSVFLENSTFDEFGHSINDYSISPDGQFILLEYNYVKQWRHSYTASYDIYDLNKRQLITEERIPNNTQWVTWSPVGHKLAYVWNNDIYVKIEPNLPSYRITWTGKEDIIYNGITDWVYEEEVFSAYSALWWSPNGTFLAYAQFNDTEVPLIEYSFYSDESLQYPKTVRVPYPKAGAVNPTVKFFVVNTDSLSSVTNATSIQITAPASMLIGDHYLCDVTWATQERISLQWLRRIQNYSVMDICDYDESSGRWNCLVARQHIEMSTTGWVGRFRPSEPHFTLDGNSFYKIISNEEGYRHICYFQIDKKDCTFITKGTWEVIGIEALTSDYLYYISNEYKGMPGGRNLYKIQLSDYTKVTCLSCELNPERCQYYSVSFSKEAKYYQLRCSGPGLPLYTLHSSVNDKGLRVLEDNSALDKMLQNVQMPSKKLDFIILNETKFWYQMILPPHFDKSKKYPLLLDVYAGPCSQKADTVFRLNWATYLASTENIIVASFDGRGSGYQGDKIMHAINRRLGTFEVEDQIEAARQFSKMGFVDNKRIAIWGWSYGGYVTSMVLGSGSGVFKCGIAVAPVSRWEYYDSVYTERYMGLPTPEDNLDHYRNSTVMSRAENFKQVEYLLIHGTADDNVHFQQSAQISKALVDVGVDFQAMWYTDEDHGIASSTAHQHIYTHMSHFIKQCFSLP

Structure (SMILES)	IC50 (DPP-IV)	IC50 (human plasma DPP-IV)	IC50 (rat plasma DPP-IV)	Increase of Insulin Response at 10 μmol/kg (insulin resistant rats)
CC1(C)C2CCC(CNCC(=O)N3CCC[C@H]3C#N)C1C2 (single isomer, unassigned) [Ex. 25, Pyrrolidine, 1-[[(6,6-dimethylbicyclo[3.1.1]hept-2-yl)methyl]amino]acetyl-2-cyano-[1S[1α,2α(S*),5α]]-(S)--, monohydrochloride]	140 nM	110 nM	140 nM	
N#Cc1ccc(NCCNCC(=O)N2CCC[C@H]2C#N)nc1 [Ex. 3, 1-[2-[(5-cyanopyridin-2-yl)amino]ethylamino]acetyl-2-cyano-(S)-pyrrolidine dihydrochloride]				66%
N#C[C@@H]1CCCN1C(=O)CNC1(CO)CCCC1 [Ex. 5, 1-[(1-hydroxymethylcyclopent-1-yl)amino]acetyl-2-cyano-(S)-pyrrolidine]				108%
N#C[C@@H]1CCCN1C(=O)CNCCNc1nccc(Cl)n1 [Ex. 7A, 1-[2-[(4-chloropyrimidin-2-yl)amino]ethylamino]acetyl-2-cyano-(S)-pyrrolidine]	165 nM			
N#C[C@@H]1CCCN1C(=O)CNCCNc1ncccc1Cl [Ex. 7B, 1-[2-[(3-chloropyridin-2-yl)amino]ethylamino]acetyl-2-cyano-(S)-pyrrolidine]	175 nM			
N#C[C@@H]1CCCN1C(=O)CNCCNc1nccc(C(F)(F)F)n1 [Ex. 7C]	290 nM			
N#C[C@@H]1CCCN1C(=O)CNCCc1ccccc1Cl [Ex. 7D, 1-[(2-chlorophenyl)ethylamino]acetyl-2-cyano-(S)-pyrrolidine]	382 nM			
N#C[C@@H]1CCCN1C(=O)CNCCNc1ccc([N+](=O)[O-])cn1 [Ex. 8, 1-[2-[(5-nitropyridin-2-yl)amino]ethylamino]acetyl-2-cyano-(S)pyrrolidine]				144%
N#C[C@@H]1CCCN1C(=O)CNCCNc1ncc(C(F)(F)F)cc1Cl [Ex. 9A, 1-[2-[(3-chloro-5-trifluoromethylpyridin-2-yl)amino]ethylamino]acetyl-2-cyano-(S)-pyrrolidine]	990 nM			
N#C[C@@H]1CCCN1C(=O)CNCCNc1ncc(Cl)cc1Cl [Ex. 9C, 1-[2-[(3,5-dichloropyridin-2-yl)amino]ethylamino]acetyl-2-cyano-(S)-pyrrolidine]	295 nM			
COc1cc(Br)c(CCNCC(=O)N2CCC[C@H]2C#N)cc1OC [Ex. 11, 1-[2-(2-bromo-4,5-dimethoxyphenyl)ethylamino]acetyl-2-cyano-(S)-pyrrolidine]	215 nM			
CC(C)OCCCNCC(=O)N1CCC[C@H]1C#N [Ex. 12, 1-[3-(isopropoxy)propylamino]acetyl-2-cyano-(S)-pyrrolidine monohydrochloride]	279 nM	95 nM	38 nM	59%
N#C[C@@H]1CCCN1C(=O)CNCCCN1CCCC1=O [Ex. 14, 1-[3-(2-oxo-pyrrolidin-1-yl)propylamino]acetyl-2-cyano-(S)-pyrrolidine monohydrochloride]	110 nM	95 nM	24 nM	
CCOc1ccc(CCNCC(=O)N2CCC[C@H]2C#N)cc1 [Ex. 16, Pyrrolidine, 1-[[2-(4-ethoxyphenyl)ethyl]amino]acetyl-2-cyano-, (S)--, monohydrochloride]	130 nM	170 nM	60 nM	
N#C[C@@H]1CCCN1C(=O)CN[C@@H]1CCN(Cc2ccccc2)C1 [Ex. 17, Pyrrolidine, 1-[(1-phenylmethyl-3-pyrrolidinyl)amino]acetyl-2-cyano-, (S)--(R)--, dihydrochloride]	60 nM	250 nM	120 nM	
COc1ccc(CCNCC(=O)N2CCC[C@H]2C#N)cc1 [Ex. 18, Pyrrolidine, 1-[[2-(4-methoxyphenyl)ethyl]amino]acetyl-2-cyano-, (S)--, monohydrochloride]	100 nM	160 nM	70 nM	
COc1cccc(CCNCC(=O)N2CCC[C@H]2C#N)c1 [Ex. 19, Pyrrolidine, 1-[[2-(3-methoxyphenyl)ethyl]amino]acetyl-2-cyano-, (S)--, monohydrochloride]	120 nM	180 nM	50 nM	
CN(CCCNCC(=O)N1CCC[C@H]1C#N)c1ccccc1 [Ex. 22, Pyrrolidine, 1-[[3-[(phenyl)(methyl)amino]propyl]amino]acetyl-2-cyano-, (S)--, dihydrochloride]	150 nM	170 nM	60 nM	
COc1ccc(CCNCC(=O)N2CCC[C@H]2C#N)cc1OC [Ex. 23, Pyrrolidine, 1-[2-[(3,4-dimethoxyphenyl)ethyl]amino]acetyl-2-cyano-, (S)--, monohydrochloride]	50 nM	40 nM	40 nM	
COc1ccc(OC)c(CCNCC(=O)N2CCC[C@H]2C#N)c1 [Ex. 26, Pyrrolidine, 1-[[2-(2,5-dimethoxyphenyl)ethyl]amino]acetyl-2-cyano-. (S)--, monohydrochloride]	170 nM	240 nM	70 nM	
N#C[C@@H]1CCCN1C(=O)CNCCC1=CCCCC1 [Ex. 27, Pyrrolidine, 1-[[2-(1-cyclohexenyl-1-yl)ethyl]amino]acetyl-2-cyano-, (S)--, monohydrochloride]	310 nM	150 nM	160 nM	
N#C[C@@H]1CCCN1C(=O)CNCCc1ccccn1 [Ex. 30, Pyrrolidine, 1-[[2-(2-pyridinyl)ethyl]amino]acetyl-2-cyano-, (S)--, dihydrochloride]	650 nM	80 nM	90 nM	
N#C[C@@H]1CCCN1C(=O)CNCc1ccccc1Sc1ccccc1CO [Ex. 35, Pyrrolidine, 1-[[[2-[(2-hydroxymethyl)phenyl]thio]phenylmethyl]amino]acetyl-2-cyano-,(S)--, monohydrochloride]	130 nM	1090 nM	340 nM	
COc1ccccc1CCNCC(=O)N1CCC[C@H]1C#N [Ex. 36, Pyrrolidine, 1-[[2-(2-methoxyphenyl)ethyl]amino]acetyl-2-cyano-, (S)--, monohydrochloride]	160 nM	170 nM	80 nM	
N#C[C@@H]1CCCN1C(=O)CNCCc1ccc(Cl)cc1Cl [Ex. 39, Pyrrolidine, 1-[[2-(2,4-dichlorophenyl)ethyl]amino]acetyl-2-cyano-, (S), monohydrochloride]	380 nM	220 nM	200 nM	
C[C@H](NCC(=O)N1CCC[C@H]1C#N)[C@H](O)c1ccccc1 [Ex. 41, Pyrrolidine, 1-[(2-hydroxy-2-phenylethyl)amino]acetyl-2-cyano-[2S-[1R*,2S*]-monohydrochloride]	140 nM	100 nM	50 nM	
N#C[C@@H]1CCCN1C(=O)CNCCc1ccccc1F [Ex. 42, Pyrrolidine, 1-[[2-(2-fluorophenyl)ethyl]amino]acetyl-2-cyano-, (S)--, monohydrochloride]	240 nM	140 nM	180 nM	
COc1cc(CCNCC(=O)N2CCC[C@H]2C#N)cc(OC)c1 [Ex. 46, Pyrrolidine, 1-[2-[(3,5-dimethoxyphenyl)ethyl]amino]acetyl-2-cyano-, (S)--, monohydrochloride]	150 nM	280 nM	60 nM	
N#C[C@@H]1CCCN1C(=O)CNC1CCN(Cc2ccccc2)CC1 [Ex. 66, Pyrrolidine, 1-[(1-phenylmethyl-4-piperidinyl)amino]acetyl-2-cyano-, (S)--, monohydrochloride]	60 nM	130 nM	40 nM	
